Target: T1, human PKCθ full length enzyme (Homo sapiens, UniProt Q04759)
T1 construct: human PKCθ full length enzyme (Panvera Cat# P2996); purchased Panvera P2996
Assay: PKCθ IMAP assay (fluorescence polarization)
Assay type: biochemical
Conditions: human PKCθ full length enzyme, IMAP; average value; read-out: IC50 PKCθ IMAP

T1 sequence (Q04759 whole entry): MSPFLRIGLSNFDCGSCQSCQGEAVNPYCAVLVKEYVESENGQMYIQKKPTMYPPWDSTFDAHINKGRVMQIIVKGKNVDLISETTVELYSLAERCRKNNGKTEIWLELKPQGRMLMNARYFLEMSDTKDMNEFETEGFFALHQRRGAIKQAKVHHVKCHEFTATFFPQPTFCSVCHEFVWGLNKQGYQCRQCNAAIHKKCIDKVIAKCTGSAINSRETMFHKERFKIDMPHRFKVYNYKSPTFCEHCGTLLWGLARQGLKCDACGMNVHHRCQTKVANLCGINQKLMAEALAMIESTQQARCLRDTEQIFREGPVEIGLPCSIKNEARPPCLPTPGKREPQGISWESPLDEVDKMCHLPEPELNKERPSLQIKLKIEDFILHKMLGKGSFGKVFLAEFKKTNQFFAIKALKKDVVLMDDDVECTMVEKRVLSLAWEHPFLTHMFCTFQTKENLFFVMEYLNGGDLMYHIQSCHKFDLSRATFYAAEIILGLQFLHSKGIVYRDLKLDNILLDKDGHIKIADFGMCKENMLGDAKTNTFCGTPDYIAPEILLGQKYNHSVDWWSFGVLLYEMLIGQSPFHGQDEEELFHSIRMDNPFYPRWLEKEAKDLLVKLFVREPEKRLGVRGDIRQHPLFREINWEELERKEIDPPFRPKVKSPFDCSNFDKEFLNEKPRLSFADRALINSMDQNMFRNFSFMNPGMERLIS

Row | Compound | IC50
1 | 4-(1H-indol-4-ylamino)-5-(4-{2-[(3-phenylpropyl)amino]ethoxy}phenyl)nicotinonitrile [Compound 347] | 4 nM
2 | COc1ccc(-c2cncc(C#N)c2Nc2cccc3[nH]c(C)cc23)cc1OC [Compound 349, 5-(3,4-dimethoxyphenyl)-4-[(2-methyl-1H-indol-4-yl)amino]nicotinonitrile] | 130 nM
3 | COCCOc1cccc(-c2cncc(C#N)c2Nc2ccc3[nH]ccc3c2C)c1 [Compound 483, 5-[3-(2-methoxyethoxy)phenyl]-4-[(4-methyl-1H-indol-5-yl)amino]nicotinonitrile] | 36 nM
4 | Cc1c(Nc2c(C#N)cncc2-c2cnc(N3CCOCC3)nc2)ccc2[nH]ccc12 [Compound 511, 4-[(4-methyl-1H-indol-5-yl)amino]-5-(2-morpholin-4-ylpyrimidin-5-yl)nicotinonitrile] | 83 nM
5 | Cc1c(Nc2c(C#N)cncc2-c2ccc(NC(=O)N(C)C)cc2)ccc2[nH]ccc12 [Compound 568, 3-(4-{5-cyano-4-[(4-methyl-1H-indol-5-yl)amino]pyridin-3-yl}phenyl)-1,1-dimethylurea] | 56 nM
6 | COc1ccc(COC(=O)Nc2ccc(-c3cncc(C#N)c3Nc3ccc4[nH]ccc4c3C)cc2F)cc1 [Compound 528, 4-methoxybenzyl (4-{5-cyano-4-[(4-methyl-1H-indol-5-yl)amino]pyridin-3-yl}-2-fluorophenyl)carbamate] | 40 nM
7 | COc1ccc(-c2cncc(C#N)c2Nc2ccc3[nH]ccc3c2)cc1OCCNc1nnc(C)s1 [Compound 183, 4-(1H-indol-5-ylamino)-5-(4-methoxy-3-{2-[(5-methyl-1,3,4-thiadiazol-2-yl)amino]ethoxy}phenyl)nicotinonitrile] | 70 nM
8 | COc1ccc(-c2cncc(C#N)c2N(C)c2ccc3[nH]ccc3c2)cc1OC [Compound 219, 5-(3,4-dimethoxyphenyl)-4-[1H-indol-5-yl(methyl)amino]nicotinonitrile] | 270 nM
9 | COCCOc1ccc(-c2cncc(C#N)c2Nc2ccc3[nH]ccc3c2C)cc1OCCOC [Compound 477, 5-[3,4-bis(2-methoxyethoxy)phenyl]-4-[(4-methyl-1H-indol-5-yl)amino]nicotinonitrile] | 72 nM
10 | COc1ccc(-c2cncc(C#N)c2Nc2ccc3[nH]ccc3c2C)c(Cl)c1 [Compound 371, 5-(2-chloro-4-methoxyphenyl)-4-[(4-methyl-1H-indol-5-yl)amino]nicotinonitrile] | 30 nM
11 | CN(C)Cc1ccc(-c2cccc(-c3cncc(C#N)c3Nc3ccc4[nH]ccc4c3)c2)s1 [Compound 187, 5-(3-{5-[(dimethylamino)methyl]-2-thienyl}phenyl)-4-(1H-indol-5-ylamino)nicotinonitrile] | 110 nM
12 | CCN(CC)Cc1ccc(-c2cncc(C#N)c2Nc2ccc3[nH]ccc3c2C)o1 [Compound 406, 5-{5-[(diethylamino)methyl]-2-furyl}-4-[(4-methyl-1H-indol-5-yl)amino]nicotinonitrile] | 42 nM
13 | COc1ccccc1-c1cncc(C#N)c1Nc1ccc2[nH]ccc2c1C [Compound 557, 5-(2-methoxyphenyl)-4-[(4-methyl-1H-indol-5-yl)amino]nicotinonitrile] | 82 nM
14 | COc1ccc(-c2cncc(C#N)c2Nc2ccc3[nH]ccc3c2)cc1OCCN1CCOCC1 [Compound 230, 4-(1H-indol-5-ylamino)-5-[4-methoxy-3-(2-morpholin-4-ylethoxy)phenyl]nicotinonitrile] | 330 nM
15 | Cc1c(Nc2c(C#N)cncc2-c2ccc(OCCCN(C)C)nc2)ccc2[nH]ccc12 [Compound 357, 6′-[3-(dimethylamino)propoxy]-4-[(4-methyl-1H-indol-5-yl)amino]-3,3′-bipyridine-5-carbonitrile] | 30 nM
16 | Cc1c(Nc2c(C#N)cncc2-c2ccncc2)ccc2[nH]ccc12 [Compound 467, 4-[(4-methyl-1H-indol-5-yl)amino]-3,4′-bipyridine-5-carbonitrile] | 36 nM
17 | N#Cc1cncc(-c2ccc(NCCN3CCOCC3)nc2)c1Nc1cccc2[nH]ccc12 [Compound 361, 4-(1H-indol-4-ylamino)-6′-[(2-morpholin-4-ylethyl)amino]-3,3′-bipyridine-5-carbonitrile] | 40 nM
18 | COc1ccc(-c2cncc(C#N)c2NCCC2CCN(C)CC2)cc1OC [Compound 447, 5-(3,4-dimethoxyphenyl)-4-{[2-(1-methylpiperidin-4-yl)ethyl]amino}nicotinonitrile] | 1930 nM

More lines, in order of falling IC50, values ahead:

Row | IC50 | Compound
19 | 30 nM | N#Cc1cncc(-c2ccc(OCCN3CCOCC3)cc2)c1Nc1cccc2[nH]ccc12 [Compound 334, 4-(1H-indol-4-ylamino)-5-[4-(2-morpholin-4-ylethoxy)phenyl]nicotinonitrile]
20 | 27 nM | Cc1c(Nc2c(C#N)cncc2-c2ccccc2)ccc2[nH]ccc12 [Compound 560, 4-[(4-methyl-1H-indol-5-yl)amino]-5-phenylnicotinonitrile]
21 | 23 nM | Cc1c(Nc2c(C#N)cncc2-c2cccc(CN3CCOCC3)c2)ccc2[nH]ccc12 [Compound 456, 4-[(4-methyl-1H-indol-5-yl)amino]-5-[3-(morpholin-4-ylmethyl)phenyl]nicotinonitrile]
22 | 21 nM | Cc1c(Nc2c(C#N)cncc2-c2cccs2)ccc2[nH]ccc12 [Compound 561, 4-[(4-methyl-1H-indol-5-yl)amino]-5-(2-thienyl)nicotinonitrile]
23 | 20 nM | N#Cc1cncc(-c2cc3cc(CN4CCNCC4)ccc3s2)c1Nc1cccc2[nH]ccc12 [Compound 359, 4-(1H-indol-4-ylamino)-5-[5-(piperazin-1-ylmethyl)-1-benzothien-2-yl]nicotinonitrile]
24 | 20 nM | N#Cc1cncc(-c2cccc(-c3cccs3)c2)c1Nc1cccc2[nH]ccc12 [Compound 147, 4-(1H-indol-4-ylamino)-5-[3-(2-thienyl)phenyl]nicotinonitrile]
25 | 16 nM | Cc1c(Nc2c(C#N)cncc2-c2ccc(CN3CCS(=O)(=O)CC3)o2)ccc2[nH]ccc12 [Compound 487, 5-{5-[(1,1-dioxidothiomorpholin-4-yl)methyl]-2-furyl}-4-[(4-methyl-1H-indol-5-yl)amino]nicotinonitrile]
26 | 13 nM | Cc1c(Nc2c(C#N)cncc2-c2cc3cc(CN4CCN(c5ccccn5)CC4)ccc3o2)ccc2[nH]ccc12 [Compound 397, 4-[(4-methyl-1H-indol-5-yl)amino]-5-{5-[(4-pyridin-2-ylpiperazin-1-yl)methyl]-1-benzofuran-2-yl}nicotinonitrile]
27 | 10 nM | N#Cc1cncc(-c2cc3ccccc3o2)c1Nc1cccc2[nH]ccc12 [Compound 318, 5-(1-benzofuran-2-yl)-4-(1H-indol-4-ylamino)nicotinonitrile]
28 | 10 nM | N#Cc1cncc(-c2cc3cc(CN4CCOCC4)ccc3s2)c1Nc1cccc2[nH]ccc12 [Compound 281, 4-(1H-indol-4-ylamino)-5-[5-(morpholin-4-ylmethyl)-1-benzothien-2-yl]nicotinonitrile]
29 | 5 nM | Cc1c(Nc2c(C#N)cncc2-c2csc(CN3CCN(C)CC3)c2)ccc2[nH]ccc12 [Compound 518, 4-[(4-methyl-1H-indol-5-yl)amino]-5-{5-[(4-methylpiperazin-1-yl)methyl]-3-thienyl}nicotinonitrile]
30 | 4 nM | Cc1c(Nc2c(C#N)cncc2-c2cc3cc(CN4CCNCC4)ccc3o2)cc(Cl)c2[nH]ccc12 [Compound 547, 4-[(7-chloro-4-methyl-1H-indol-5-yl)amino]-5-[5-(piperazin-1-ylmethyl)-1-benzofuran-2-yl]nicotinonitrile]
31 | 4 nM | Cc1c(Nc2c(C#N)cncc2-c2ccc(CN3CCN(C)CC3)o2)ccc2[nH]ccc12 [Compound 468, 4-[(4-methyl-1H-indol-5-yl)amino]-5-{5-[(4-methylpiperazin-1-yl)methyl]-2-furyl}nicotinonitrile]
32 | 4 nM | Cc1c(Nc2c(C#N)cncc2-c2cc3cc(C4OCCCO4)ccc3o2)ccc2[nH]ccc12 [Compound 370, 5-[5-(1,3-dioxan-2-yl)-1-benzofuran-2-yl]-4-[(4-methyl-1H-indol-5-yl)amino]nicotinonitrile]
33 | 3 nM | Cc1c(Nc2c(C#N)cncc2-c2ccc(OCCNC3CCN(C)CC3)cc2)ccc2[nH]ccc12 [Compound 420, 4-[(4-methyl-1H-indol-5-yl)amino]-5-(4-{2-[(1-methylpiperidin-4-yl)amino]ethoxy}phenyl)nicotinonitrile]
34 | 3 nM | Cc1c(Nc2c(C#N)cncc2-c2cccc(CN3CCN(C)CC3)c2)ccc2[nH]ccc12 [Compound 454, 4-[(4-methyl-1H-indol-5-yl)amino]-5-{3-[(4-methylpiperazin-1-yl)methyl]phenyl}nicotinonitrile]
35 | 3 nM | Cc1c(Nc2c(C#N)cncc2-c2ccc(OCCNCCCc3ccccc3)cc2)ccc2[nH]ccc12 [Compound 355, 4-[(4-methyl-1H-indol-5-yl)amino]-5-(4-{2-[(3-phenylpropyl)amino]ethoxy}phenyl)nicotinonitrile]
36 | 2 nM | Cc1c(Nc2c(C#N)cncc2-c2cc3cc(CNCc4cccnc4)ccc3o2)ccc2[nH]ccc12 [Compound 399, 4-[(4-methyl-1H-indol-5-yl)amino]-5-(5-{[(pyridin-3-ylmethyl)amino]methyl}-1-benzofuran-2-yl)nicotinonitrile]
37 | 1 nM | N#Cc1cncc(-c2cc3cc(CNCc4ccccc4)ccc3s2)c1Nc1cccc2[nH]ccc12 [Compound 286, 5-{5-[(benzylamino)methyl]-1-benzothien-2-yl}-4-(1H-indol-4-ylamino)nicotinonitrile]
38 | 1 nM | Cc1c(Nc2c(C#N)cncc2-c2cc3cc(CNCCN4CCCC4)ccc3o2)ccc2[nH]ccc12 [Compound 390, 4-[(4-methyl-1H-indol-5-yl)amino]-5-(5-{[(2-pyrrolidin-1-ylethyl)amino]methyl}-1-benzofuran-2-yl)nicotinonitrile]
39 | 0.2 nM | Cc1c(Nc2c(C#N)cncc2-c2cc3cc(CN4CCN(C)CC4)ccc3o2)ccc2[nH]ccc12 [Compound 462, 4-[(4-methyl-1H-indol-5-yl)amino]-5-{5-[(4-methylpiperazin-1-yl)methyl]-1-benzofuran-2-yl}nicotinonitrile]

— patent publication US7781591B2, “Substituted 3-cyanopyridines as protein kinase inhibitors” (Wyeth LLC, priority 2006, dated 2010)
